Broadly, the aqueous solubility is the dissolved amount per volume that the medium holds. As a reminder, the half-life is how long it takes for the measured level to halve.

Some results are limits rather than exact numbers.

The values that follow come from patent US11931321B2, “Compositions comprising a dendrimer-resveratrol complex and methods for making and using the same” (Concordia University, priority 2013, dated 2024).

The conditions of series [1]: background statement; cited from earlier work.
The conditions of series [2]: background statement; cited from earlier work. This is another data set of the same source.
Series [3] is described as follows: Dissolution studies in simulated gastric and intestinal fluids. The class given is physicochemical.
Description: The formulation was split into 2 equal aliquots and lyophilized. Simulated gastric and intestinal fluids were prepared, with the simulated gastric fluid consisting of HCl, NaCl, Pepsin, and water while the simulated intestinal fluid consisted of NaOH, KH2PO4, and water. […] This experiment was protected from light. At various time points, 0.5 mL aliquots of fluid were removed from the chambers and analyzed via HPLC. The volume removed was replaced with fresh simulated fluid.
Series [4] can be described thus: Stability studies: HPLC of resveratrol remaining in aqueous solution. The class given is physicochemical. On the procedure: The sample can then be analyzed via HPLC to determine the amount of resveratrol in the composition. This amount of resveratrol can be compared to the initially determined amount. This comparison amount can be used to determine the percent degradation.
Stability was determined by HPLC analysis of a 1% PAMAM-G4 amine dendrimer-resveratrol complex at 21° C. (ambient temperature), 37° C., and 4° C. […]

`Oc1ccc(C=Cc2cc(O)cc(O)c2)cc1` [Resveratrol, 3,4′,5-trihydroxystilbene]: the aqueous solubility in series [1] is 0.015 to 0.04 µg/mL. Further, in series [2], the half-life is 8 to 14 min, the metabolic stability entry is reported as “poor” and the oral bioavailability result is “low”. In addition, in series [3] (simulated gastric fluid), the “time to dissolution (still dissolving at final time point)” value is more than 4.5 h. Moreover, the “time to dissolution (still dissolving at final time point)” value in series [3] (simulated intestinal fluid) was more than 4.5 h. The drug remained intact entry in series [4] (4° C., day 29, aqueous solution) is “no drug remained”. The resveratrol remained intact entry in series [4] (ambient temperature (21° C.), day 4, aqueous solution) was “completely degraded”.
